From patent US20120101261A1, “USE OF MULTI-KINASE INHIBITORS IN THE TREATMENT OF VASCULAR HYPERPERMEABILITY” (Fondazione IRCCS Istituto Nazionale Dei Tumori, priority 2009, published 2012)

Legend:
[1] = tested on: vascular permeability in mouse tail; test: Miles vascular permeability assay (Evans blue) in mice with surgically induced tail lymphedema; format: in vivo
Protocol: A Miles vascular permeability assay using intrasplenic injection of the blue dye Evans blue was perfomed in untreated and sorafenib-treated mice bearing a surgical-induced tail lymphedema.
Six- to eight-wk-old female C57BL/6 mice with body weight of 20 to 25 g, were used in this experiment. Tail lymphedema was generated by a circumferential incision through the dermis close to the tail base, as described above. […] On day 16, mice received the last dose of sorafenib and 2 hrs later were injected through the spleen with 0.1 ml of 1% Evan's blue in PBS. After 2 h, the mice were exsanguinated under anesthesia, and were perfused with heparin in PBS until lungs and livers were blanched. The distal portion of the tail was then removed and placed in formamide at 37° C. overnight to extract Evan's blue dye. […]

acquired arm lymphedema = test: Pilot clinical study in breast cancer patients with acquired arm lymphedema; format: in vivo, human; conditions: oral 200 mg daily, up to 8 weeks, ten patients
Description: To further evaluate in a clinical setting the anti-lymphedema activity of multi-kinase inhibitor sorafenib, the Applicants performed a pilot study on a compassionate need basis to evaluate the toxicity and the anti-lymphedema effects of multi-kinase inhibitor sorafenib in consenting breast cancer patients with acquired arm lymphedema occurring following surgical dissection of, and/or radiotherapy on axillary lymphnodes. No other treatment options of proven efficacy was available for these patients.
Patients were administered with oral sorafenib at a dose of 200 mg daily.
Therapy was given for a maximum of 8 weeks or until lymphedema progression or appearance of clinical significant toxicity probably related to multi-kinase inhibitor sorafenib.
Within a two-month period of time ten breast cancer patients with acquired lymphedema of the arm were treated with multi-kinase inhibitor sorafenib.
At the end of treatment, the efficacy of multi-kinase inhibitor sorafenib was evaluated as percentage reduction of total arm circumference as compared with pre-treatment values. The median reduction of total arm circumference was 60% (range, 30 to 100). Lymphedema reduction was associated with a 5-10% reduction of body weight.

[2] = tested on: severe bilateral leg lymphedema; test: Observation of leg lymphedema in a Hodgkin lymphoma patient in a phase II clinical trial; format: in vivo, human; conditions: one Hodgkin lymphoma patient, 800 mg/die, lymphedema from post-radiotherapy compressive lymphatic obstruction
Description: In this patient, lymphedema was due a compressive lymphatic obstruction related to post-radiotherapy sequelae.

[3] = tested on: tail lymphedema in C57BL/6 mice; test: Mouse tail model of lymphedema; format: in vivo; conditions: 60 mg/kg/die days 5 to 9 and 12 to 16
Protocol: Six- to eight-wk-old female C57BL/6 mice with body weight of 20 to 25 g, were purchased from Charles River (Milano, Italy, EU). Mice were housed under standard laboratory conditions according to the Applicant's institutional guidelines. Animal experiments were performed according to the Italian laws (Law Decree 116/92 and following additions), which enforce the EU […] Directive, and were approved by the institutional Ethical Committee for Animal Experimentation.
To create lymphedema, a circumferential incision was made through the dermis close to the tail base to sever the dermal lymphatic vessels. The edges of this incision were then pushed apart, thereby severing the deeper draining lymphatics, preventing superficial bleeding, and creating a 2-3 mm gap to delay wound closure.
Sorafenib dosing used in mice experiments is roughly equivalent to a 300 mg daily dosing in humans.
Mice were than randomly assigned to receive two cycles of sorafenib (60 mg/kg/die) from days 5 to 9 and 12 to 16 or control vehicle.

SMILES: CNC(=O)c1cc(Oc2ccc(NC(=O)Nc3ccc(Cl)c(C(F)(F)F)c3)cc2)ccn1 [sorafenib, Sorafenib]
- mean (±SEM) OD620 of Evans blue extracted from the tail ([1]; 60 mg/kg, 384 h): 0.09±0.009
- reduction of vascular permeability vs untreated mice (extravasated Evans blue) ([1]; day 16, 60 mg/kg/die days 5 to 9 and 12 to 16): 2 fold
- median reduction of total arm circumference vs pre-treatment (acquired arm lymphedema; end of treatment): 60%
- reduction of body weight associated with lymphedema reduction (acquired arm lymphedema): 5-10%
- tolerability (acquired arm lymphedema; no dose reduction or discontinuation due to toxicity): well tolerated
- regression of severe bilateral leg lymphedema [2]: complete regression
- mean (±SEM) tail diameter at lymphedema peak ([3]; day 7 after incision, control peak 63±3 mm on day 15): 58±4 mm
- resolution of tail lymphedema ([3]; day 20): complete resolution of lymphedema
- mean (±SEM) tail diameter on day 20 ([3]; day 20 after incision, control 58±3, P≦0.0003, baseline 36±1): 36±1 mm
